Values of other authors, collected in patent US20230203007A1, “PYRIDINYLACETAMIDE DERIVATIVES AS SODIUM CHANNEL ACTIVATORS” (priority 2021, published 2023).

Assays:
Nav1.1 = target: T1, Nav1.1 (Homo sapiens, UniProt P35498); settings: Nav1.1-expressing HEK cells
T1 construct: host or cells: HEK cells

Nav1.2 = Nav1.2 (Homo sapiens, UniProt Q99250); settings: relative to Nav1.1 activation
Nav1.5 = Nav1.5 (Homo sapiens, UniProt Q14524); settings: relative to Nav1.1 activation
Sequence of Nav1.5 (Q14524 whole entry): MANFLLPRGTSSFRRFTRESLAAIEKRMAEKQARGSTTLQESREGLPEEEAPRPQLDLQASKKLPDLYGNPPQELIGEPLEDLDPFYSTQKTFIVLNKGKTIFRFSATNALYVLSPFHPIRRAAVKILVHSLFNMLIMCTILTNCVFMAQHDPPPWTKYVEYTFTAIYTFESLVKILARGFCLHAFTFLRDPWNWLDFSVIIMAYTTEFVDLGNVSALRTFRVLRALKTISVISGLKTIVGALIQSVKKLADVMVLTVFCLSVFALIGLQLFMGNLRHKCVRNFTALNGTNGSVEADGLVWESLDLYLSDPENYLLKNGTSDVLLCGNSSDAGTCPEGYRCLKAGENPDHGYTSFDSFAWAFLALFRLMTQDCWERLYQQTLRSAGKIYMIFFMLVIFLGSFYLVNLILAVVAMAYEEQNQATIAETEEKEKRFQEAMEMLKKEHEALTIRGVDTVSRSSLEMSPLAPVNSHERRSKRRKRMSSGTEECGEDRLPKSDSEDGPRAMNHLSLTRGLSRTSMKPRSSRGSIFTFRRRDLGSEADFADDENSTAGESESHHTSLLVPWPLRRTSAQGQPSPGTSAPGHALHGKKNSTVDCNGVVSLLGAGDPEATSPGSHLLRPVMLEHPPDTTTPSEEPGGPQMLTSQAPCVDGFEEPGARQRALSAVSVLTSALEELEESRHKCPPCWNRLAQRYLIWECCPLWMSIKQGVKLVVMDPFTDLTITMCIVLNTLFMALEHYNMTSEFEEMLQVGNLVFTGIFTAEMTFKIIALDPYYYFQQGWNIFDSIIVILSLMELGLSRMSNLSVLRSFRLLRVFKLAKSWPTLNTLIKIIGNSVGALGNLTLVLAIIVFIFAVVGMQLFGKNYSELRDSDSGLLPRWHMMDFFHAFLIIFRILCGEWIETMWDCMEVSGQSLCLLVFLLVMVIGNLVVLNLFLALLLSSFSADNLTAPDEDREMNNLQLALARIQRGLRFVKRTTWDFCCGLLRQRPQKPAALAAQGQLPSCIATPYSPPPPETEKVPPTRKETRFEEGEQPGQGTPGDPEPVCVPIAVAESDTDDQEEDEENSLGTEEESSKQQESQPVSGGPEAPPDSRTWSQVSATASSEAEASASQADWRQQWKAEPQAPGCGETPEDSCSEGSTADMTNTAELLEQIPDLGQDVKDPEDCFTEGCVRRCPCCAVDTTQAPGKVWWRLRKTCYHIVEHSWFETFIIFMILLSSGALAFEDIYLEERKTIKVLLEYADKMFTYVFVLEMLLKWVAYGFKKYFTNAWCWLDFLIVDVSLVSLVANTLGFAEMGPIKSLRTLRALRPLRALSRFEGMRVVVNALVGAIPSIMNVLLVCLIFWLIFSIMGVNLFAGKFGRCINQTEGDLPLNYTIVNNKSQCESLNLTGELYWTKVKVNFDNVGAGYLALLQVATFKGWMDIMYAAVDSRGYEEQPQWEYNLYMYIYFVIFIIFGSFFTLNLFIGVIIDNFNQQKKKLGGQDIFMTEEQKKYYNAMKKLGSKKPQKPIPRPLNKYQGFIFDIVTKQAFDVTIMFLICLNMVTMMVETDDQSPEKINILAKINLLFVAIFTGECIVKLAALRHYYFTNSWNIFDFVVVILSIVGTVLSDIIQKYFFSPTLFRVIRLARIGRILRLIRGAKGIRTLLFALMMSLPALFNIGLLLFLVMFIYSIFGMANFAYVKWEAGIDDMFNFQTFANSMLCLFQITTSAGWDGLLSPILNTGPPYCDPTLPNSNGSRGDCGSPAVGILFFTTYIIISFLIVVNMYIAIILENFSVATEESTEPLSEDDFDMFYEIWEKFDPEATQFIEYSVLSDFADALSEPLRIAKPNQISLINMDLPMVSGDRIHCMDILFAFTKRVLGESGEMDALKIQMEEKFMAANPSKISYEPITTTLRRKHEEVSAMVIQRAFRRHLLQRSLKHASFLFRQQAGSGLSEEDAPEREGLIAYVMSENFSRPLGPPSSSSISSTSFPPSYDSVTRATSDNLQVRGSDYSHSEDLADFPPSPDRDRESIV

Sequence of Nav1.2 (Q99250 whole entry): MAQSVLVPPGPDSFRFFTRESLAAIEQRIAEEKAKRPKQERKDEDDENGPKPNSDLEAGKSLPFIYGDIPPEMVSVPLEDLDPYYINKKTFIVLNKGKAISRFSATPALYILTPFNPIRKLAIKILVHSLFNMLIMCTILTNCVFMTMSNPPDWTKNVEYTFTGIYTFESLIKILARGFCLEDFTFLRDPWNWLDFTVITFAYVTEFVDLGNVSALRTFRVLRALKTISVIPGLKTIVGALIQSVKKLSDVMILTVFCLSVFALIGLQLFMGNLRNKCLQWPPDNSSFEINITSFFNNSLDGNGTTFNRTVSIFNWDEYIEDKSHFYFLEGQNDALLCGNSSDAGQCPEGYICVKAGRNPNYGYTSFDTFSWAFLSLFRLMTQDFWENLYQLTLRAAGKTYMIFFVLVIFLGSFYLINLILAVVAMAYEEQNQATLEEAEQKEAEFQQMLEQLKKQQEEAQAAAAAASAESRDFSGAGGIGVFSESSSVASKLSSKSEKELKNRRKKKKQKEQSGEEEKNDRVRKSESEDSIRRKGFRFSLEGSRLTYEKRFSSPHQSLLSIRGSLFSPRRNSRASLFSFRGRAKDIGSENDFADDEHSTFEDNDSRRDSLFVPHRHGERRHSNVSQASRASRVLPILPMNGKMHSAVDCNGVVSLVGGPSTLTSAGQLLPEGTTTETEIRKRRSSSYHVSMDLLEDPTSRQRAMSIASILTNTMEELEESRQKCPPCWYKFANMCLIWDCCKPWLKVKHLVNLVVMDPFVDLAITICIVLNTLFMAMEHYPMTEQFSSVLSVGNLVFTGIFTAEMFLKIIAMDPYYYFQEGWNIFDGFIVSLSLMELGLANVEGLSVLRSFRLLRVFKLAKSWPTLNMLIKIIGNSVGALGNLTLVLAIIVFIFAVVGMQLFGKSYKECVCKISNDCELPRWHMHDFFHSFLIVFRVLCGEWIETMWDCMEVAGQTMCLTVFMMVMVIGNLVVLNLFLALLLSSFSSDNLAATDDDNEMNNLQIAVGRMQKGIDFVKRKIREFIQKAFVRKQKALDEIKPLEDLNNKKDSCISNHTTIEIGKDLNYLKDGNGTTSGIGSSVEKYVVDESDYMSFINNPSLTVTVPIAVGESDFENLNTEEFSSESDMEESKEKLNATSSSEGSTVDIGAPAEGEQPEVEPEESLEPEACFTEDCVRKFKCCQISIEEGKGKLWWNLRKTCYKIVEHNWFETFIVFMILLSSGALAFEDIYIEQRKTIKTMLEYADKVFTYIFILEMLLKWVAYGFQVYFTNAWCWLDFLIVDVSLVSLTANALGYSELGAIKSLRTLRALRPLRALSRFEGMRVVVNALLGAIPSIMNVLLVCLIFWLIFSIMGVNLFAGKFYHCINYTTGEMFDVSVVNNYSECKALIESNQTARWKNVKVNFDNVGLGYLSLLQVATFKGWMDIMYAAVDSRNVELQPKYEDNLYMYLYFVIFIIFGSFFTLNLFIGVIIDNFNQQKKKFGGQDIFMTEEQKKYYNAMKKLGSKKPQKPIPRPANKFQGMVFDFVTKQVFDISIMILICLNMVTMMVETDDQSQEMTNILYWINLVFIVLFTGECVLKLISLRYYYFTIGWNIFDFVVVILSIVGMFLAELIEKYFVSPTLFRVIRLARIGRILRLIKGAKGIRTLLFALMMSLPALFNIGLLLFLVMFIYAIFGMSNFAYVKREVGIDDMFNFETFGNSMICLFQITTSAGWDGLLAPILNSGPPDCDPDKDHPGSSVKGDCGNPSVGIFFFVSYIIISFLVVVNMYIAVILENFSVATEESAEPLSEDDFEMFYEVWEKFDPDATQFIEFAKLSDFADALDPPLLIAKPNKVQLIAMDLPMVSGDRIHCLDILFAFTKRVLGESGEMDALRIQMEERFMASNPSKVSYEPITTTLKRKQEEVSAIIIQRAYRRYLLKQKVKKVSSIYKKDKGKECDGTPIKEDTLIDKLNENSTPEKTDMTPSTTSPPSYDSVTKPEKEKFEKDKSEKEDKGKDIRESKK

Q: What does the source list for `CCCCNS(=O)(=O)c1ccc(OC)c(-c2nnc3c4ccccc4c(C)nn23)c1` [Lu AE98134]?
A: concentration from which the total area under the curve for the duration of the depolarizing pulse is increased (Nav1.1): ≥ 1 µM; selectivity against Nav1.2 (Nav1.2): moderate selectivity; selectivity against Nav1.5 (Nav1.5): low selectivity
